Data on one molecule can be found in publication PMC11222350, “Preclinical evaluation of [^18F]FP-CIT, the radiotracer targeting dopamine transporter for diagnosing Parkinson’s disease: pharmacokinetic and efficacy analysis” (EJNMMI Research, 2024).

Where “and” joins values, the source holds several entries; their conditions need not be identical. Identical values can stand only once.

Data set [1] deals with dopamine transporter. The note with it: PET scanning; cited from earlier work.
The nature of data set [2]: Excretion study of [^18F]FP-CIT in urine and feces of normal mice. The data set is classed as in vivo, C57BL/6 mice. How it is done:
For excretion analysis, male C57BL/6 mice (group II) were injected with 37 MBq of [^18F]FP-CIT in the same way described above. The mice were kept in separate cages for urine and feces collection at different time points (1, 2, 3, 4, 5, and 6 h after injection; n = 6 each). Six pieces of absorbent paper were placed in the cages to ensure that all urine samples were absorbed into the paper when the test animals excreted the urine. Fecal samples were collected using felt. The urine remaining in the bladder was collected using a syringe after the mice were sacrificed at the endpoints. The samples collected at each time point were measured using a dose calibrator (CRC-127R; Capintec, Florham Park, NJ, USA). Decay correction of the radioactivity indicated on the dose calibrator at the relevant time points was performed.

Data set [3] has as its target T1, dopamine transporter (Rattus norvegicus, UniProt P23977).
T1 construct: from tissue; host or cells: striatum of living Sprague-Dawley rats (in vivo PET/CT)
The data set can be described thus: Animal PET/CT imaging of [^18F]FP-CIT in the 6-OHDA-induced rat model. Format: in vivo, Sprague–Dawley rats. The note with it: for SUV of lesion site uptake: 37 MBq i.v. How it is done: We induced the PD model in rats using 6-OHDA according to a previous study. Briefly, female Sprague–Dawley rats (group IV) were intraperitoneally pretreated with desipramine […] (12.5 mg/kg; 12.5 mg/mL). The rats were anesthetized with 3% isoflurane in oxygen, had their heads shaved, and were placed in a stereotactic frame. A lesion in the right striatum was induced by 6-OHDA injection (4 μg/μL, 2 μL/site in 0.2% ascorbic acid) into four coordinate sites (anterior–posterior (AP) + 1.3, + 0.4, − 0.4, and − 1.3 mm; medial–lateral (ML) − 2.6, − 3.0, − 4.2, and − 4.5 mm; and dorsal–ventral (DV) − 5.0 mm) using a 26G Hamilton syringe at a rate of 1 μL/min (n = 3). The syringe was withdrawn slowly 5 min after the injection, and the wound was sutured. The surgical procedure in the sham group was also performed in the same manner using […] in normal saline instead of 6-OHDA (n = 3). All of the rats were randomly assigned to PD and sham model groups.
To evaluate the uptake targeting efficacy in the striatum, animal PET/CT imaging of [^18F]FP-CIT was performed in the same week following the behavioral tests on the group IV 6-OHDA PD model (PD model and sham model, n = 3 per group). PET/CT images were acquired using nanoScan® PET/CT (Mediso Medical Imaging Systems, Budapest, Hungary). PET image acquisition was performed as previously described. Rats were anesthetized with 2% isoflurane in oxygen, and 37 MBq of [^18F]FP-CIT in 1 mL of saline was intravenously injected via the tail vein using a syringe pump (Pump Elite 11, Harvard Apparatus, USA) over 1 min. Dynamic PET scanning was performed for 60 min with 24 frames ([…], 3 × 60, 4 × 300, and 3 × 600 s). Image scans were acquired in the energy window of 400–600 keV. All images were reconstructed using a three-dimensional ordered subset expectation maximization (3D-OSEM) algorithm with four iterations and six subsets. For attenuation correction and anatomical reference, CT imaging was performed immediately after PET using a 50 kVp of X-ray voltage with 0.16 mAs.
To define the anatomical volumes of interest (VOIs), MR scans were obtained on a 31 cm horizontal-bore Agilent 9.4T scanner (Agilent Technologies, Santa Clara, CA, USA) using a 4-channel array mouse head surface coil following PET/CT imaging (Rapid Biomedical GmbH, Rimpar, Germany) (PD model and sham model, n = 3 each). […] The respiratory rates of the rats were monitored using an MR-compatible physiological monitoring and gating system during image acquisition (SA Instruments Inc., USA).
Each PET image was co-registered with the raw MR image to compare the regional [^18F]FP-CIT uptake in the striatum. […] The obtained uptake value, represented as the standardized uptake value (SUV), was determined for each VOI. […]

Data set [4] addresses T1, dopamine transporter. The data set can be described thus: Correlation between [^18F]FP-CIT PET uptake and tyrosine hydroxylase IHC. Format: in vivo, Sprague–Dawley rats. The note with it: Pearson.
Experimental: After MR and PET/CT studies, group IV rats were anesthetized with 3.5% isoflurane and fixed by intracardial perfusion with 0.9% saline, followed by 4% paraformaldehyde, replacing the blood in the brain. The brains were extracted and post-fixed in 4% paraformaldehyde overnight at 4 °C. Subsequently, the samples were transferred to 30% sucrose at 4 °C until they sank to the bottom. Cryoprotected brains were embedded in optimal cutting temperature compound (Tissue-Tek; Sakura, Torrance, CA, USA) and sectioned in the coronal plane using a microtome (CM1950; Leica, Wetzlar, Germany) at a thickness of 30 μm. Free-floating brain sections were rinsed with PBS, treated with 3% hydrogen peroxide for 30 min, and then washed with PBS again. Sections were permeabilized with 0.3% Trioton-X-100 for 30 min and washed with PBS. […]
IHC slide imaging was performed using a slide scanner (MoticEasyScan Pro 6; Motic, Kowloon, Hong Kong). The intensity of TH antibody binding was quantified by delineating regions of interest (ROI) for positive lesion and intact sites on the IHC images using ImageJ software. An average of four slides for each brain sample was analyzed. […]
The correlation between [^18F]FP-CIT uptake and TH intensity was assessed, considering absolute values for each lesion and intact site in the striatum. Additionally, lesion/intact ratio values for each study were calculated and analyzed. […]

T1 sequence (P23977 whole entry): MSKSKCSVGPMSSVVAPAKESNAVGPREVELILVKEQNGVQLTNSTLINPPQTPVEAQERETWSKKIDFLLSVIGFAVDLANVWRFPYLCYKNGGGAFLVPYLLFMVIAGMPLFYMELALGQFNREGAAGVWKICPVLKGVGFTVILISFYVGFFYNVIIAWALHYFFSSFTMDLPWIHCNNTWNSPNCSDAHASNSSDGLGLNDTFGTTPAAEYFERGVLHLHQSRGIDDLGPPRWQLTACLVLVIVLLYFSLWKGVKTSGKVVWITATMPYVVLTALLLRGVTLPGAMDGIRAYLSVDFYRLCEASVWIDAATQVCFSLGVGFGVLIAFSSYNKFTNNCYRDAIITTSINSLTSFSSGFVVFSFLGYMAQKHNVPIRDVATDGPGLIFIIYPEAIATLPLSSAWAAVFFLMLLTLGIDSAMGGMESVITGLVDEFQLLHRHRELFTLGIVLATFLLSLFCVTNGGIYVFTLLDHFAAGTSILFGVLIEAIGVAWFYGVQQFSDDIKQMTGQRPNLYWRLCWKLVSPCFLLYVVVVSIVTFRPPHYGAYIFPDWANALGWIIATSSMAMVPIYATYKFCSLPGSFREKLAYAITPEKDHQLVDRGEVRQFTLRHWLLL

On to `COC(=O)[C@H]1[C@@H](c2ccc(I)cc2)C[C@@H]2CC[C@H]1N2CCCF` [[^18F]FP-CIT, N-(3-fluoropropyl)-2β-carboxymethoxy-3β-(4-iodophenyl) nortropane], for which the “time of transient equilibrium in time activity curves (specific binding to the striatum)” value in data set [1] was 60 to 100 min. The “Accumulated excretion radioactivity (Decay corrected)” value in data set [2] (1 h, Mean ± SD of 6 mice (group II)) was 0.03 ± 0.04 mCi; in data set [2] (1 h, individual mice no. 1-6 (group II), 37 MBq i.v.) it was 0.00 mCi and 0.01 mCi and 0.10 mCi and 0.03 mCi and 0.02 mCi; in data set [2] (2 h, Mean ± SD of 6 mice (group II)), 0.05 ± 0.04 mCi; in data set [2] (2 h, individual mice no. 1-6 (group II), 37 MBq i.v.) it was 0.07 mCi and 0.01 mCi and 0.11 mCi and 0.02 mCi and 0.05 mCi; in data set [2] (3 h, Mean ± SD of 6 mice (group II)), 0.06 ± 0.05 mCi; in data set [2] (3 h, individual mice no. 1-6 (group II), 37 MBq i.v.), 0.07 mCi and 0.01 mCi and 0.15 mCi and 0.02 mCi and 0.08 mCi and 0.05 mCi. The “Accumulated excretion radioactivity (Decay corrected)” value in data set [2] (4 h, Mean ± SD of 6 mice (group II)) is 0.08 ± 0.06 mCi; in data set [2] (4 h, individual mice no. 1-6 (group II), 37 MBq i.v.), 0.11 mCi and 0.01 mCi and 0.16 mCi and 0.02 mCi and 0.09 mCi and 0.08 mCi; in data set [2] (5 h, Mean ± SD of 6 mice (group II)), 0.09 ± 0.05 mCi; in data set [2] (5 h, individual mice no. 1-6 (group II), 37 MBq i.v.), 0.11 mCi and 0.04 mCi and 0.17 mCi and 0.02 mCi and 0.09 mCi and 0.08 mCi; in data set [2] (6 h, Mean ± SD of 6 mice (group II)), 0.09 ± 0.05 mCi; in data set [2] (6 h, individual mice no. 1-6 (group II), 37 MBq i.v.), 0.12 mCi and 0.04 mCi and 0.17 mCi and 0.02 mCi and 0.10 mCi. Besides, the Excretion ratio in data set [2] (till 6 h, individual mice no. 1-6 (group II)) is 26.99% and 14.17% and 31.89% and 6.20% and 22.94% and 26.58%. Besides, the “time at which transient equilibrium tendency appeared in TACs” value in data set [3] (intact striatum, post-injection) was “approximately 5 min”. Further, the “reduction of lesion site SUV, PD group vs sham group” value in data set [3] (striatum lesion site) is recorded as 55.4%. The “SUV of lesion site uptake” value in data set [3] (striatum lesion site, PD group (6-OHDA)) is 1.85 ± 0.13; in data set [3] (striatum lesion site, sham group), 4.15 ± 0.86. Further, in data set [4] (each lesion and intact site in the striatum, n = 12), the “correlation coefficient (R) between animal PET/CT uptake and TH intensity by IHC, absolute values” is reported as 0.803. Also, the “correlation coefficient (R) between animal PET/CT uptake and TH intensity by IHC, lesion/intact ratio values” in data set [4] (n = 6) amounted to 0.973.
